Measured values: PubChem BioAssay AID1919003 (Molecular Pharmacology Branch, DTP, NCI, 2023)
“And” between values parts separate entries of the source, which are not always exact repeats. Identical values can stand only once.

Test system: 786-0 complex spheroids with HUVEC/MSC, growth % test/control
Assay: Anticancer human tumor 786-0 cell line growth inhibition [AhR];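 also: compound exposure lasted seven days before the read-out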
Conditions: for viability, T/C: stronger effect = lower value
How it was run: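 Spheroids combined tumor cells with HUVEC endothelial cells and human MSCs as stroma. AhR antagonists were paired with standard or investigational drugs, each dosed in half-log steps down from near clinical Cmax, or from 10 microM where Cmax was unknown.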

[1] = curve of first compound, second compound 0.1 µM
[2] = curve of first compound, second compound 0.316 µM
[3] = curve of first compound, second compound 1 µM
[4] = curve of first compound, second compound 3.16 µM
[5] = curve of first compound, second compound 10 µM
[6] = second compound 0.1 µM, first compound 0.0316 µM
[7] = second compound 0.1 µM, first compound 0.1 µM
[8] = second compound 0.1 µM, first compound 0.316 µM
[9] = second compound 0.1 µM, first compound 1 µM
[10] = second compound 0.316 µM, first compound 0.0316 µM
[11] = second compound 0.316 µM, first compound 0.1 µM
[12] = second compound 0.316 µM, first compound 0.316 µM
[13] = second compound 0.316 µM, first compound 1 µM
[14] = second compound 1 µM, first compound 0.0316 µM
[15] = second compound 1 µM, first compound 0.1 µM
[16] = second compound 1 µM, first compound 0.316 µM
[17] = second compound 1 µM, first compound 1 µM
[18] = second compound 3.16 µM, first compound 0.0316 µM
[19] = second compound 3.16 µM, first compound 0.1 µM
[20] = second compound 3.16 µM, first compound 0.316 µM
[21] = second compound 3.16 µM, first compound 1 µM
[22] = second compound 10 µM, first compound 0.0316 µM
[23] = second compound 10 µM, first compound 0.1 µM
[24] = second compound 10 µM, first compound 0.316 µM
[25] = second compound 10 µM, first compound 1 µM
[26] = second compound 0.1 µM, first compound 3.16 µM
[27] = second compound 0.1 µM, first compound 10 µM
[28] = second compound 0.316 µM, first compound 3.16 µM
[29] = second compound 0.316 µM, first compound 10 µM
[30] = second compound 1 µM, first compound 3.16 µM
[31] = second compound 1 µM, first compound 10 µM
[32] = second compound 3.16 µM, first compound 3.16 µM
[33] = second compound 3.16 µM, first compound 10 µM
[34] = second compound 10 µM, first compound 3.16 µM
[35] = second compound 10 µM, first compound 10 µM

CC1COCCN1c1cc(-c2ccnn2C)c2ccnc(-c3ccn[nH]3)c2n1 (configuration not stated) + CC(CO)NC(=O)c1cc(-c2ccc(Cl)cc2)nn(-c2cnn(C)c2)c1=O
IC50 [1]: 134 nM | IC50 [2]: 109 nM | IC50 [3]: 98.3 nM | IC50 [4]: 79.4 nM | IC50 [5]: 51.1 nM | viability, T/C (second compound 0.1 µM, first compound 0.00316 µM): 100% | viability, T/C (second compound 0.1 µM, first compound 0.01 µM): 100% | viability, T/C [6]: 106% | viability, T/C [7]: 63.5% | viability, T/C [8]: 11.1% | viability, T/C [9]: 3.76% | viability, T/C (second compound 0.316 µM, first compound 0.00316 µM): 112% | viability, T/C (second compound 0.316 µM, first compound 0.01 µM): 103% | viability, T/C [10]: 105% | viability, T/C [11]: 53.3% | viability, T/C [12]: 7.31% | viability, T/C [13]: 3.22% | viability, T/C (second compound 1 µM, first compound 0.00316 µM): 97.6% | viability, T/C (second compound 1 µM, first compound 0.01 µM): 110% | viability, T/C [14]: 104% | viability, T/C [15]: 49% | viability, T/C [16]: 8.48% | viability, T/C [17]: 3.85% | viability, T/C (second compound 3.16 µM, first compound 0.00316 µM): 112% | viability, T/C (second compound 3.16 µM, first compound 0.01 µM): 114% | viability, T/C [18]: 103% | viability, T/C [19]: 36.7% | viability, T/C [20]: 6.89% | viability, T/C [21]: 3.57% | viability, T/C (second compound 10 µM, first compound 0.00316 µM): 116% | viability, T/C (second compound 10 µM, first compound 0.01 µM): 109% | viability, T/C [22]: 78.5% | viability, T/C [23]: 10.1% | viability, T/C [24]: 2.89% | viability, T/C [25]: 2.73%

COc1ccc([C@@H](O)c2cc(-c3ncnc4cc(N5CCOCC5)ccc34)c(F)cc2Cl)nn1 + Cc1cncc(-c2nc(NCCc3c[nH]c4ccccc34)c3ncn(C(C)C)c3n2)c1
IC50 [1]: > 10000 nM | IC50 [2]: > 10000 nM | IC50 [3]: > 10000 nM | IC50 [4]: > 10000 nM | IC50 [5]: < 31.6 nM | viability, T/C [6]: 103% | viability, T/C [7]: 111% | viability, T/C [8]: 111% | viability, T/C [9]: 112% | viability, T/C [26]: 109% | viability, T/C [27]: 89.9% | viability, T/C [10]: 112% | viability, T/C [11]: 111% | viability, T/C [12]: 114% | viability, T/C [13]: 120% | viability, T/C [28]: 103% | viability, T/C [29]: 95.4% | viability, T/C [14]: 107% | viability, T/C [15]: 103% | viability, T/C [16]: 96.4% | viability, T/C [17]: 104% | viability, T/C [30]: 103% | viability, T/C [31]: 84.8% | viability, T/C [18]: 73% | viability, T/C [19]: 73.3% | viability, T/C [20]: 66.4% | viability, T/C [21]: 62.7% | viability, T/C [32]: 61.2% | viability, T/C [33]: 61.5% | viability, T/C [22]: 6.44% | viability, T/C [23]: 5.3% | viability, T/C [24]: 8.33% | viability, T/C [25]: 5.44% | viability, T/C [34]: 5.99% | viability, T/C [35]: 9.73%

Nc1ncn(C2CC(O)C(CO)S2)c(=O)n1 (configuration not stated) + CC(CO)NC(=O)c1cc(-c2ccc(Cl)cc2)nn(-c2cnn(C)c2)c1=O
IC50 [1]: > 300 nM | IC50 [2]: > 300 nM | IC50 [3]: > 300 nM | IC50 [4]: > 300 nM | IC50 [5]: > 300 nM | viability, T/C (second compound 0.1 µM, first compound 0.000949 µM): 102% | viability, T/C (second compound 0.1 µM, first compound 0.003 µM): 97.3% | viability, T/C (second compound 0.1 µM, first compound 0.00949 µM): 99.8% | viability, T/C (second compound 0.1 µM, first compound 0.03 µM): 102% | viability, T/C (second compound 0.1 µM, first compound 0.0949 µM): 92.3% | viability, T/C (second compound 0.1 µM, first compound 0.3 µM): 67.2% | viability, T/C (second compound 0.316 µM, first compound 0.000949 µM): 101% | viability, T/C (second compound 0.316 µM, first compound 0.003 µM): 109% | viability, T/C (second compound 0.316 µM, first compound 0.00949 µM): 109% | viability, T/C (second compound 0.316 µM, first compound 0.03 µM): 107% | viability, T/C (second compound 0.316 µM, first compound 0.0949 µM): 94.8% | viability, T/C (second compound 0.316 µM, first compound 0.3 µM): 64.7% | viability, T/C (second compound 1 µM, first compound 0.000949 µM): 104% | viability, T/C (second compound 1 µM, first compound 0.003 µM): 115% | viability, T/C (second compound 1 µM, first compound 0.00949 µM): 111% | viability, T/C (second compound 1 µM, first compound 0.03 µM): 102% | viability, T/C (second compound 1 µM, first compound 0.0949 µM): 97.9% | viability, T/C (second compound 1 µM, first compound 0.3 µM): 63.1% | viability, T/C (second compound 3.16 µM, first compound 0.000949 µM): 122% | viability, T/C (second compound 3.16 µM, first compound 0.003 µM): 108% | viability, T/C (second compound 3.16 µM, first compound 0.00949 µM): 115% | viability, T/C (second compound 3.16 µM, first compound 0.03 µM): 108% | viability, T/C (second compound 3.16 µM, first compound 0.0949 µM): 92.6% | viability, T/C (second compound 3.16 µM, first compound 0.3 µM): 66.4% | viability, T/C (second compound 10 µM, first compound 0.000949 µM): 118% | viability, T/C (second compound 10 µM, first compound 0.003 µM): 116% | viability, T/C (second compound 10 µM, first compound 0.00949 µM): 117% | viability, T/C (second compound 10 µM, first compound 0.03 µM): 123% | viability, T/C (second compound 10 µM, first compound 0.0949 µM): 119% | viability, T/C (second compound 10 µM, first compound 0.3 µM): 68.1%

CC1(C)CCC(CN2CCN(c3ccc(C(=O)NS(=O)(=O)c4ccc(NCC5CCOCC5)c([N+](=O)[O-])c4)c(Oc4cnc5[nH]ccc5c4)c3)CC2)=C(c2ccc(Cl)cc2)C1 + Cc1ccccc1N=Nc1ccc(NC(=O)c2ccnn2C)c(C)c1
IC50 [1]: > 10000 nM | IC50 [2]: > 10000 nM | IC50 [3]: > 10000 nM | IC50 [4]: > 10000 nM | IC50 [5]: > 10000 nM | viability, T/C [6]: 97.2% | viability, T/C [7]: 103% | viability, T/C [8]: 95.2% | viability, T/C [9]: 109% | viability, T/C [26]: 89.5% | viability, T/C [27]: 83.8% | viability, T/C [10]: 109% | viability, T/C [11]: 99% | viability, T/C [12]: 102% | viability, T/C [13]: 106% | viability, T/C [28]: 97.8% | viability, T/C [29]: 77.9% | viability, T/C [14]: 97.5% | viability, T/C [15]: 95.1% | viability, T/C [16]: 96.7% | viability, T/C [17]: 99.4% | viability, T/C [30]: 91.8% | viability, T/C [31]: 80% | viability, T/C [18]: 95.6% | viability, T/C [19]: 96.9% | viability, T/C [20]: 99.2% | viability, T/C [21]: 90.4% | viability, T/C [32]: 77.1% | viability, T/C [33]: 82.9% | viability, T/C [22]: 94.6% | viability, T/C [23]: 96.3% | viability, T/C [24]: 88.3% | viability, T/C [25]: 87.8% | viability, T/C [34]: 75.7% | viability, T/C [35]: 65.5%

COc1ccc([C@@H](O)c2cc(-c3ncnc4cc(N5CCOCC5)ccc34)c(F)cc2Cl)nn1
viability, T/C (compound 0.0316 µM): 96.7% and 103% and 114% | viability, T/C (compound 0.1 µM): 93.2% and 100% and 104% | viability, T/C (compound 0.316 µM): 98.7% and 110% and 115% | viability, T/C (compound 1 µM): 84.7% and 105% and 108% | viability, T/C (compound 3.16 µM): 91.4% and 103% and 111% | viability, T/C (compound 10 µM): 70.2% and 91.1% and 85.7% | IC50 (curve of compound): > 10000 nM

CC(C)c1c(-c2ccccc2)nc2c(C#N)c[nH]n2c1=O + Cc1cncc(-c2nc(NCCc3c[nH]c4ccccc34)c3ncn(C(C)C)c3n2)c1
IC50 [1]: > 10000 nM | IC50 [2]: > 10000 nM | IC50 [3]: > 10000 nM | IC50 [4]: > 10000 nM | IC50 [5]: < 31.6 nM | viability, T/C [6]: 115% | viability, T/C [7]: 121% | viability, T/C [8]: 112% | viability, T/C [9]: 123% | viability, T/C [26]: 113% | viability, T/C [27]: 132% | viability, T/C [10]: 120% | viability, T/C [11]: 118% | viability, T/C [12]: 118% | viability, T/C [13]: 124% | viability, T/C [28]: 115% | viability, T/C [29]: 104% | viability, T/C [14]: 114% | viability, T/C [15]: 107% | viability, T/C [16]: 114% | viability, T/C [17]: 108% | viability, T/C [30]: 116% | viability, T/C [31]: 112% | viability, T/C [18]: 82.9% | viability, T/C [19]: 71.8% | viability, T/C [20]: 78.2% | viability, T/C [21]: 78% | viability, T/C [32]: 67.2% | viability, T/C [33]: 76.1% | viability, T/C [22]: 7.79% | viability, T/C [23]: 5.72% | viability, T/C [24]: 9.94% | viability, T/C [25]: 8.21% | viability, T/C [34]: 8.12% | viability, T/C [35]: 9.28%
